The text below walks through data of ChEMBL document CHEMBL1201862, “PubChem BioAssay data set” (2004).

Active and inactive are the calls of the source.

The target in test [1] is T1, Short transient receptor potential channel 4 (Mus musculus, UniProt Q9QUQ5).
T1 sequence (Q9QUQ5 whole entry): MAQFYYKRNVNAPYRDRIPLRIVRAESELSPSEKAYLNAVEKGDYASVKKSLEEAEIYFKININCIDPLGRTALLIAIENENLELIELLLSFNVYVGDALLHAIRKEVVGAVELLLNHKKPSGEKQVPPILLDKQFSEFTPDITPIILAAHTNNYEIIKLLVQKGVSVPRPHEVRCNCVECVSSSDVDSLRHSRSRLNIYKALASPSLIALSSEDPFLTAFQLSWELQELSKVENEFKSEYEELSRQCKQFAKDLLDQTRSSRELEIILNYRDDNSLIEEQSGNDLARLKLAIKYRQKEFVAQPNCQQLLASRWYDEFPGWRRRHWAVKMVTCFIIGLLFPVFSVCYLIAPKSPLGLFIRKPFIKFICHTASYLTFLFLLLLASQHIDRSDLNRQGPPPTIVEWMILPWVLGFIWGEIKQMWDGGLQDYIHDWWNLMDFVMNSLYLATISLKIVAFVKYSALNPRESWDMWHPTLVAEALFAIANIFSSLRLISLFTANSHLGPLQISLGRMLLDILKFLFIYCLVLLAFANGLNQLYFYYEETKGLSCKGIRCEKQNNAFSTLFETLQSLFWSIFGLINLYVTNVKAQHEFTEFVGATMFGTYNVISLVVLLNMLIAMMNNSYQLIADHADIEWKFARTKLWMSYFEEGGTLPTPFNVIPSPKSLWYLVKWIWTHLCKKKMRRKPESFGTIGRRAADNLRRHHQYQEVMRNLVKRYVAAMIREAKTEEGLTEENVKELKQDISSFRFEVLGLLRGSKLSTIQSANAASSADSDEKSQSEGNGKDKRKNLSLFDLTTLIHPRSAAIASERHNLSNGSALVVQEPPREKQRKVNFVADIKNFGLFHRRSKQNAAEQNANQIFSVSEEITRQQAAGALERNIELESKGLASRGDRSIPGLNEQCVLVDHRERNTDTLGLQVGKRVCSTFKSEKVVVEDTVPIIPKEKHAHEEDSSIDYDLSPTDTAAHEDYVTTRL
Put plainly: block of DAMGO-driven TRPC4 calcium entry – cell-based, HEK293 TRPC4/mu-opioid, Fluo-4 calcium, dose response (AID 434942).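 Also: potency of inhibitors blocking the TRPC4 calcium response.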 In kind it is functional.

For another test, the target named is T2, Protein skinhead-1 (Caenorhabditis elegans, UniProt P34707).
T2 sequence (P34707 whole entry): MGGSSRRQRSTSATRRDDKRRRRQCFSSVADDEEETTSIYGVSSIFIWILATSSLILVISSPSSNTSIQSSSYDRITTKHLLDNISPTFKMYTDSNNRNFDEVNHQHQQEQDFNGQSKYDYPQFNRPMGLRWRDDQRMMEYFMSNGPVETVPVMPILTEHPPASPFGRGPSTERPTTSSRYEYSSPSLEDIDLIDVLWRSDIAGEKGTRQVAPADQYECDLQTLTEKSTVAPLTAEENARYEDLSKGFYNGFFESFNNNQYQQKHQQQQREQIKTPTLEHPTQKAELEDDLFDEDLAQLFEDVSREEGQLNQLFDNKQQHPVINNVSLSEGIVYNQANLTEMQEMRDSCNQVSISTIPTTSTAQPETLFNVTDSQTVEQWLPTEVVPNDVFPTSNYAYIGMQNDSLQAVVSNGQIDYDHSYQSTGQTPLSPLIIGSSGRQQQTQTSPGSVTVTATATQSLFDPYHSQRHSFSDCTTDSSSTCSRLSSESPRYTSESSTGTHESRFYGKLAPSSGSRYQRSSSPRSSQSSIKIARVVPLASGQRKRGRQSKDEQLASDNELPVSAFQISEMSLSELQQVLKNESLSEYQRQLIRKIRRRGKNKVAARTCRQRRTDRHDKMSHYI
In kind it is functional.

A further test addresses T3, Caspase-3 (Homo sapiens, UniProt P42574).
T3 sequence (P42574 whole entry): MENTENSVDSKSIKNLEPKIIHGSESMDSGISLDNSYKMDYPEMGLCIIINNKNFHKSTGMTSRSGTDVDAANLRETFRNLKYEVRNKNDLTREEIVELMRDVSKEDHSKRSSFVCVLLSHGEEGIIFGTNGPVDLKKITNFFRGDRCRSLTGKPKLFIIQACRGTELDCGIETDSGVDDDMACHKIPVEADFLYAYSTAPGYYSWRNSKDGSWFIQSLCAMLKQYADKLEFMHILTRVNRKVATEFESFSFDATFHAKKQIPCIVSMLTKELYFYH
In kind it is functional.

In test [2] the target is T4, Sentrin-specific protease 7 (Homo sapiens, UniProt Q9BQF6).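 Also: Luminescence-based dose-response confirmation of ultra-high-throughput screening hits, measuring inhibition of SENP7.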
T4 sequence (Q9BQF6 whole entry): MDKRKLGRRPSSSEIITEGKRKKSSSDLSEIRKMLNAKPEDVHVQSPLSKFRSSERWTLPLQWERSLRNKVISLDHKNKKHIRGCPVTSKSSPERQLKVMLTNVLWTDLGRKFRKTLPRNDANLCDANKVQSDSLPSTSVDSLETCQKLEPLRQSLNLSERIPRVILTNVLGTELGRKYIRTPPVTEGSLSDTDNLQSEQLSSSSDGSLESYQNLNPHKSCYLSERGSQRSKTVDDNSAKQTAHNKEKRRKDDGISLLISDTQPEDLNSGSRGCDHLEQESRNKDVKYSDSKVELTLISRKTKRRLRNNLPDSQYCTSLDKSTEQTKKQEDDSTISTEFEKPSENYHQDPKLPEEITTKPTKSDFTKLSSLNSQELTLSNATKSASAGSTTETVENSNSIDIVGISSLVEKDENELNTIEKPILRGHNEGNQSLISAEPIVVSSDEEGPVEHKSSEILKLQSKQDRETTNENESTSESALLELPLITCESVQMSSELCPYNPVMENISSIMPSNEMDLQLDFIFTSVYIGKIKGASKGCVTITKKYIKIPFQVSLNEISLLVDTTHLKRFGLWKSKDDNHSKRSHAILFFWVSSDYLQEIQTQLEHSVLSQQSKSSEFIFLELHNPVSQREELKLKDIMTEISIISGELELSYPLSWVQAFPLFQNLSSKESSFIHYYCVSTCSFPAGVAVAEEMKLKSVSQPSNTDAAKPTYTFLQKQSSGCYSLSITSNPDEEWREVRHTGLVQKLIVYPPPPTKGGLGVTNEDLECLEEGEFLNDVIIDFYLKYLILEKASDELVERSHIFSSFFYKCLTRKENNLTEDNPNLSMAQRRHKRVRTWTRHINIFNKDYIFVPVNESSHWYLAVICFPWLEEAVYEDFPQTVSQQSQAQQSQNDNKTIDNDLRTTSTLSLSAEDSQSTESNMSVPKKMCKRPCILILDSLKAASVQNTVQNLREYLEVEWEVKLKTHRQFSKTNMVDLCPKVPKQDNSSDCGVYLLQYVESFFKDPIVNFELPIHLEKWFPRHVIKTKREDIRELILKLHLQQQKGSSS
In kind it is functional.

Test [3] addresses T5, Sentrin-specific protease 6 (Homo sapiens, UniProt Q9GZR1).
T5 sequence (Q9GZR1 whole entry): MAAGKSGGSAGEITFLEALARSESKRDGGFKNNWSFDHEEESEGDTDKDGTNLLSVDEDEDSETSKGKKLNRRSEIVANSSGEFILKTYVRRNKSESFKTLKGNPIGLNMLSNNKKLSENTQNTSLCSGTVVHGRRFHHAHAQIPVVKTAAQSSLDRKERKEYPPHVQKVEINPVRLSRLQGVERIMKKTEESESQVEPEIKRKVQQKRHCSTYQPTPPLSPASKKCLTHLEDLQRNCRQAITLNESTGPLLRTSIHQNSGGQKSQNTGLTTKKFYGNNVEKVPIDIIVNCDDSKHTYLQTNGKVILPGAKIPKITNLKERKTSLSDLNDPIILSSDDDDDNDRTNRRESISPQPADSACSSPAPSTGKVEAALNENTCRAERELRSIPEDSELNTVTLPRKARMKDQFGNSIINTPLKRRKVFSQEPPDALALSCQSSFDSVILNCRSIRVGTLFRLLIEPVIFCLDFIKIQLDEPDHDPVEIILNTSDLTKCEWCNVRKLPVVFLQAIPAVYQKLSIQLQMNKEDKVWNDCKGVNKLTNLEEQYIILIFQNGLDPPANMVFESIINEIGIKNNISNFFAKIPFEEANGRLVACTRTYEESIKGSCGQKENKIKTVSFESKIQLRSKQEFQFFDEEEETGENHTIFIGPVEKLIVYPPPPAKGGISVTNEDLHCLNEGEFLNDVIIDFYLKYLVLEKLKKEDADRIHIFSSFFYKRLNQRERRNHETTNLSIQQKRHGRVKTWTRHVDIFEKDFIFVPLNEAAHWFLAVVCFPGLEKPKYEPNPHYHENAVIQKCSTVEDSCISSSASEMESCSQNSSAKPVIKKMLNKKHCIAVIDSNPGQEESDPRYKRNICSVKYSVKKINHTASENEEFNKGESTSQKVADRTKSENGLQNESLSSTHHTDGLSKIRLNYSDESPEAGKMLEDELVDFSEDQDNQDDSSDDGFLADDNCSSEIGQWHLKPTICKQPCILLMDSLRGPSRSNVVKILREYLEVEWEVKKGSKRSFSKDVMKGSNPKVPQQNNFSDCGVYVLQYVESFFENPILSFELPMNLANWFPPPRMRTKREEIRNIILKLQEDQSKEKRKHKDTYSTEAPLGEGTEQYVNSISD
In kind it is functional.

The target in test [4] is T6, Sentrin-specific protease 8 (Homo sapiens, UniProt Q96LD8).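 Also: luminescence read-out of SENP8 inhibition, dose-response confirmation following an ultra-high-throughput screen.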
T6 sequence (Q96LD8 whole entry): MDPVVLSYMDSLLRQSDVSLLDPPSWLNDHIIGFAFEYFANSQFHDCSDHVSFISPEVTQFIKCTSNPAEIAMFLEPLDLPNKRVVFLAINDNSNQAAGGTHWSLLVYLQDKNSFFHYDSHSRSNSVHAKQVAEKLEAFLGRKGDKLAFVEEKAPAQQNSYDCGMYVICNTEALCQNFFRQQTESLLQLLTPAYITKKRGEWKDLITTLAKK
In kind it is functional.

The target in test [5] is T7, Mannose-6-phosphate isomerase (Homo sapiens, UniProt P34949).
T7 sequence (P34949 whole entry): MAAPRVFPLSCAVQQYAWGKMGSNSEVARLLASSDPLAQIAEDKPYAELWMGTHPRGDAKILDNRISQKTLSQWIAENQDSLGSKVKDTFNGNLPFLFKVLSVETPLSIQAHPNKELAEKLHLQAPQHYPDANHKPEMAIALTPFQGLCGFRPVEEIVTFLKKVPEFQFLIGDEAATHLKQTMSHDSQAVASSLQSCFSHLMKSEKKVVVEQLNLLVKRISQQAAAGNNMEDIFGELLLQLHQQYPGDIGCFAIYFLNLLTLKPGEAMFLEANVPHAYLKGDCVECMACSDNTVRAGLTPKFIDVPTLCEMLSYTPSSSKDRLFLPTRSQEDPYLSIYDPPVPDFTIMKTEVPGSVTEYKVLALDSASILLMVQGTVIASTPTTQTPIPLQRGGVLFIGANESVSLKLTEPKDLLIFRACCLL
Description: MPI inhibition at elevated mannose 6-phosphate – biochemical, fluorescence intensity, high mannose 6-phosphate, primary screen (AID 1220).

The test system of a further test is Vero. Description: viability of Vero cells under compound – cytotoxicity control for flavivirus capping enzyme inhibitors (AID 588742). The following applies: Chlorocebus sabaeus. In kind it is functional.
In test [6] the target is T8, Rac GTPase-activating protein 1 (Homo sapiens, UniProt Q9H0H5).
T8 sequence (Q9H0H5 whole entry): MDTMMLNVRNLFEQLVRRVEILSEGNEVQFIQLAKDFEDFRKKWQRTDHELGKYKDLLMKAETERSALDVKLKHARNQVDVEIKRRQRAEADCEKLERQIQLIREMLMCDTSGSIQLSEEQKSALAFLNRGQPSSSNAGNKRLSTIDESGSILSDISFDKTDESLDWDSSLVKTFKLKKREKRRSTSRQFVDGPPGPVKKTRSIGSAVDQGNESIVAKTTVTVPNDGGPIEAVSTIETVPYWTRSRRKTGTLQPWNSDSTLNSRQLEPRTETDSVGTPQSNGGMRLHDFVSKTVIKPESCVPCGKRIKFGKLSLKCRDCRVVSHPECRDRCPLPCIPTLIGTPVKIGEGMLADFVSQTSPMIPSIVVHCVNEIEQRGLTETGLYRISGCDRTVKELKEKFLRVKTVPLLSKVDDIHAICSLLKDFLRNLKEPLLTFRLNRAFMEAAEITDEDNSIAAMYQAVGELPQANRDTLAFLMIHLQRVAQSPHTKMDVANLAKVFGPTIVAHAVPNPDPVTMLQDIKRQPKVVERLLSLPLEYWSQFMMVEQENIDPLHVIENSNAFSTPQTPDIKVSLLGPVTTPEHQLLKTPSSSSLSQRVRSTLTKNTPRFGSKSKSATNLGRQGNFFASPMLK
Description: blockers of MgcRacGAP-driven Rac1 GTP hydrolysis – biochemical, ADP Hunter fluorescence, primary and confirmatory, confirmation (AID 624330). In kind it is functional.

On to `COc1cccc(O)c1CN1CCCC(C(=O)c2sccc2C)C1` (stereo not given), for which the EC50 in [1] was 3.35 µM (active). As for `CCC1CCCCN1CCN1C(=O)C2C(C(=O)Nc3ccc(OC)cc3)C3C=CC2(O3)C1C(=O)NC1CCCCC1` (stereo not given), the EC50 in test [1] is 0.0947 µM (active). Besides, at Protein skinhead-1, the IC50 was > 100 µM (inactive). Regarding `Cc1ccc(NC(=O)CN2CCc3ccccc3C2)cc1F`, the EC50 in test [1] is 6.68 µM (active). Still for that read-out and setting: to `OCc1ccccc1CNCc1ccccc1` belongs 2.99 µM (active); to `C=CCc1ccccc1OCC(O)CN1CCN(c2ccccc2OC)CC1` (stereo not given), 5.31 µM (active). For `Cc1ccc(C(=O)COC(=O)c2ccc(Cl)c(N)c2)s1`, the IC50 on Caspase-3 was 15 µM (active); in test [2] it was 5.51 µM (active); in test [3], 17.4 µM (active); in [4], 23.1 µM (active). As to `COc1ccc(C(CNC(=O)c2oc3ccc(Cl)cc3c2C)N2CCCCC2)cc1` (stereo not given), the EC50 in [1] was 15 µM (active). `COc1ccc2c(c1)-c1nc(/N=C/c3ccccc3O)sc1CC2`: the IC50 in [5] was > 50 µM (not active); in test [6] it was 20 µM (active). Moreover, the CC50 with Vero is > 40 µM (active). On to `Cc1c(N)c(C(C)(C)C)cc(C(C)(C)C)c1[N+](=O)[O-]`, for which, in [1], the EC50 is 4.22 µM (active).
